Literature values, collected in patent US8636711B2 (priority 2010, dated 2014).

For `NS(=O)(=O)c1cc(C(=O)O)c(NCc2ccco2)cc1Cl` [furosemide], the tolerability (intravenous or subcutaneous routes) is listed as “generally well-tolerated” and the pH value (parenteral) is listed as 11-12.
